One series concerns the target EGFR (Homo sapiens, UniProt P00533). Nature of the series: EGF-induced EGFR phosphorylation in A431 cells (phosphoflow). The note with it: 10 μM; A431 human epidermoid cancer cell line.
Series [1] is described as follows: Brain PK experiments (brain and CSF versus plasma). In kind it is in vivo, Sprague-Dawley rats. The note with it: rats, 5 or 30 mg/kg/day.
Text: Two vehicle treated rats were sacrificed on each sampling day for comparison.
The test system of a further series is CLL. As to the kind of experiment: Clinical study of Formula (XVIII) in CLL. The series is classed as in vivo. An excerpt:
J. Med. 2013, 369, 32-42.

Series [2] deals with human platelet-mediated thrombosis. Nature of the series: In vivo human thrombus formation in the VWF HA1 mice model (laser-induced injury). The note with it: pretreated human platelets. On the procedure: Constitutive or aberrant activation of the BCR signaling cascade has been implicated in the propagation and maintenance of a variety of B cell malignancies. […] J. Haematol. […] In fact, both Tec and BTK play an important role in the regulation of phospholipase Cγ2 (PLCγ2) downstream of the collagen receptor glycoprotein VI (GPVI) in human platelets. […] Biotechnol.
Injury to the vessel wall of arterioles ([…] diameter) was performed using a pulsed nitrogen dye laser (440 nm, Photonic Instruments) applied through a 20× water-immersion Olympus objective (LUMPlanFl, 0.5 numerical aperature (NA)) of a Zeiss Axiotech vario microscope. […] The extent of thrombus formation was assessed for 2 minutes after injury and the area (μm^2) of coverage determined (Image IQ, Andor Technology).
The BTK inhibitor-treated human platelets were fluorescently labeled and infused continuously through a catheter inserted into the femoral artery.

Another series addresses BTK (Homo sapiens, UniProt Q06187). As to the kind of experiment: BTK target occupancy in relapsed/refractory CLL patients. Particulars: at lower dosage versus ibrutinib, FIG. 144.
The subject of a further series is KPC pancreatic cancer. Nature of the series: KPC pancreatic cancer model. In kind it is in vivo.
A short description of series [3]: Study of respiratory function. Particulars: rats, doses through 300 mg/kg.
For a further series, the system named is BCR. Nature of the series: In vivo potency: expression of activation markers CD69 and CD86 after BCR stimulation with IgM. Particulars: compared with ibrutinib; mice gavaged, sacrificed 3 h post-dose; flow cytometry; FIG. 137. On the procedure: Mice were gavaged at increasing drug concentration and sacrificed at one time point (3 h post-dose). BCR is stimulated with IgM and the expression of activation markers CD69 and CD86 are monitored by flow cytometry to determine EC50's.
On the technique in general: Flow cytometry measures light scatter and fluorescence of single cells or particles in a stream.

The nature of series [4]: Glutathione binding and depletion in vitro. In kind it is in vitro ADME.
A further series has as its system NK cells. Nature of the series: NK cell degranulation (CD107a externalization, flow cytometry). The series is classed as cell-based, human. Particulars: 1 μM, HER18 target cells.
For series [5], the system named is orthotopic pancreatic cancer (KPC derived cells). Nature of the series: Orthotopic pancreatic cancer model (KPC cell line implanted in C57BL/6 mice). In kind it is in vivo. Particulars: orthotopic PDA model, oral 15 mg/kg. On the procedure: Cell line derived from KrasG12D; Trp53R172H; Pdxl-Cre (KPC) mice were orthotopically implantated into the head of the pancreas after 35 passages. Based on the mice background from where the cell lines were generated, 1×10^6 cells were injected in C57BL/6 mice. Throughout the experiment, animals were provided with food and water ad libitum and subjected to a 12-h dark/light cycle. Animal studies were performed in accordance with the U.S. Public Health Service “Guidelines for the Care and Use of Laboratory Animals” (IACUC). After euthanization, pancreatic tumors were dissected out, weighed and single cell suspensions were prepared for flow cytometry analysis.

Molecules are shown by their SMILES. Entries after “also recorded” stand apart in the source; their conditions may differ.

BTK, sequence (Q06187 whole entry): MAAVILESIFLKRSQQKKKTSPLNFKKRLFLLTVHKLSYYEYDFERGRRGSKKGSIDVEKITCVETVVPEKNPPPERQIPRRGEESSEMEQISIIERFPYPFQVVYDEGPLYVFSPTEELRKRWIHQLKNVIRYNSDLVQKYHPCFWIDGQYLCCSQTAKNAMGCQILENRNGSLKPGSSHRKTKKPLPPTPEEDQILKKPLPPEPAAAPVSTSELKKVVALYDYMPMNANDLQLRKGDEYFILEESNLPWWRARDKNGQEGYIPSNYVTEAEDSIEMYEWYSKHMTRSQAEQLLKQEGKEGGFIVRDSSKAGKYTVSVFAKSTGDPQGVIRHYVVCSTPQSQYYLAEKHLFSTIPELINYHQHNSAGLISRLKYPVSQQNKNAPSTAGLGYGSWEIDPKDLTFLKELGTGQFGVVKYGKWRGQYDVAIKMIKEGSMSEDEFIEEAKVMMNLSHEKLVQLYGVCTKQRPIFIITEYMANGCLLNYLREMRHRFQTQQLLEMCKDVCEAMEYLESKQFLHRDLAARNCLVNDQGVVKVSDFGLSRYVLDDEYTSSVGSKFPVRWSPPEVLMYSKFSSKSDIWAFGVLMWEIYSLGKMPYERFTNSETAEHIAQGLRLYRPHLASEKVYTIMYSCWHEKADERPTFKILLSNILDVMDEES
EGFR, sequence (P00533 25-1210): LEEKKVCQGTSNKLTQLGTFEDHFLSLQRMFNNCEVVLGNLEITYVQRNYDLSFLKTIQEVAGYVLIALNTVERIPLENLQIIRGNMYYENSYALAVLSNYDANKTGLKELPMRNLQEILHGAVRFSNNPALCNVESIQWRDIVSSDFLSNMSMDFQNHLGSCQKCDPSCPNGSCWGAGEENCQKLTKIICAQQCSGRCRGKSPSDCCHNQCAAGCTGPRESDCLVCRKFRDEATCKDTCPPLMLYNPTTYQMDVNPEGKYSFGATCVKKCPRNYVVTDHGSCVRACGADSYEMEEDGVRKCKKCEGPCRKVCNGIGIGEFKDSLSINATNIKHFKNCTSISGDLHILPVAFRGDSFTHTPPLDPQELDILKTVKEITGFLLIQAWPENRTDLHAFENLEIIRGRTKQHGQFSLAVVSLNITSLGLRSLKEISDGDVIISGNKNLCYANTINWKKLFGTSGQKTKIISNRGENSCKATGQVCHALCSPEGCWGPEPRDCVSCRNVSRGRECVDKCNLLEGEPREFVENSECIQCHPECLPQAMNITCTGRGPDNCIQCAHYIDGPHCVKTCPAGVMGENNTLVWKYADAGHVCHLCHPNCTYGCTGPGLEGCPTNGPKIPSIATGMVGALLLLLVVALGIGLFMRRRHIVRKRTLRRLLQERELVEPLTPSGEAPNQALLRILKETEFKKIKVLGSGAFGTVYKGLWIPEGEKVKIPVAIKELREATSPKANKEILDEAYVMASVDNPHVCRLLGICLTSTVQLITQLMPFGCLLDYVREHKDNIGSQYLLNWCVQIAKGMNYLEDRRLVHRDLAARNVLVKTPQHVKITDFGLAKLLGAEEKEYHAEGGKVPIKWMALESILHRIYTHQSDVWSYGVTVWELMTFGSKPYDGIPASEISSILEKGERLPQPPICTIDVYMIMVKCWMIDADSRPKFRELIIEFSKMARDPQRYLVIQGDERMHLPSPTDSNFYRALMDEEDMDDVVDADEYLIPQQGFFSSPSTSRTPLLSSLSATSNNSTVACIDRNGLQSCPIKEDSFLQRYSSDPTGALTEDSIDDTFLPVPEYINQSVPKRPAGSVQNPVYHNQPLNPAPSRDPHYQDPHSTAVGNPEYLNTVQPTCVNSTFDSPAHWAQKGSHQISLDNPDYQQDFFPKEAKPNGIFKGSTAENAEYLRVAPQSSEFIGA
Experimental for NK cells: Lytic granule release was determined as follows. NK cells from healthy donors were enriched and cultured in the presence of target cells, monoclonal antibodies and test articles as described above. After 4 hours, the cultures were harvested and cells were pelleted, washed, and then stained for flow cytometry evaluation. Degranulation was evaluated via by flow cytometery by externalization of CD107a, a protein normally present on the inner leaflet of lytic granules, and gating on NK cells (CD3-CD16^+ lymphocytes). The percentage of CD107a positive NK cells was quantified by comparison with a negative control (isotype control, unstained cells/FMO). Control cultures (NK cells cultured without target cells, or NK, target cell co-cultures in the absence of appropriate monoclonal antibody) were also evaluated; all experiments were performed in triplicate.

On to `CC#CC(=O)N1CCC[C@H]1c1nc(-c2ccc(C(=O)Nc3ccccn3)cc2)c2c(N)nccn12` [Formula (XVIII), (S)-4-(8-amino-3-(1-(but-2-ynoyl)pyrrolidin-2-yl)imidazo[1,5-a]pyrazin-1-yl)-N-(pyridin-2-yl)benzamide], for which, on EGFR, the “Inhibition of in vitro EGFR phosphorylation” value was “no inhibition”. Further, the “Levels in brain and CSF samples” value in series [1] is listed as “low but detectable levels”. Besides, the apoptosis entry in the series with CLL (CLL patients, FIG. 157) is listed as “increased”. Moreover, the “sum of the product of greatest diameters (SPD)” value in the series on CLL (CLL, compared with ibrutinib, FIG. 138) is given as “decreases more rapidly”. Moreover, in the series with CLL (CLL, relative to ibrutinib (Byrd et al. 2013), FIG. 138), the “absolute lymphocyte count (ALC)” value is “much smaller relative increase and much faster decrease”. The CXCL12 levels entry with CLL (patients treated, FIG. 158) was “decrease”. Moreover, in the series with CLL (patients treated, FIG. 159), the CCL2 levels result was “decrease”. In addition, the “Effect on human platelet-mediated thrombus formation” value in series [2] is “does not interfere with thrombus formation; also recorded: no significant effect on human platelet-mediated thrombus formation”. The BTK target occupancy entry at BTK is “improved”. Besides, the “immunosuppressive TAMs (CD11b+Ly6ClowF4/80+Csf1r+) in tumor tissues” value with KPC pancreatic cancer (FIG. 128) is reported as “significantly reduced”. For the same molecule, the “immunosuppressive MDSCs (Gr1+Ly6CHi) in tumor tissues” value in the series on KPC pancreatic cancer (FIG. 129) is listed as “significantly reduced”. Also, the “immunosuppressive Tregs (CD4+CD25+FoxP3+) in tumor tissues” value in the series on KPC pancreatic cancer (FIG. 130) is “significantly reduced”. Also, the Respiratory function entry in [3] was “no treatment-related adverse effects”. Also, in the series on BCR, the “potency at inhibiting expression of activation markers CD69 and CD86” value is recorded as “more potent”. For the same molecule, the “Glutathione binding and depletion” value in series [4] is on record as “binds to glutathione but does not deplete glutathione in vitro”. For the same molecule, the “Inhibition of trastuzumab-stimulated NK cell degranulation” value with NK cells is recorded as “no inhibitory effect”. Further, in series [5], the “Immature myeloid infiltrate (MDSCs)” value is listed as “decreased immature myeloid infiltrate”, the “Immunosuppressive Tregs” value is recorded as “reduced the number of immunosuppressive Tregs”, the Tumor associated macrophages result is “reduced the number of tumor associated macrophages” and the Tumor burden entry is “significantly reduced tumor burden”.

Values taken from patent US20170224819A1, “Therapeutic Combinations of a BTK Inhibitor, a PI3K Inhibitor, a JAK-2 Inhibitor, and/or a CDK 4/6 Inhibitor” (Acerta Pharma B.V., priority 2014, published 2017).
